The results in this text go back to patent publication US11739122B2, “Glycopeptide antibiotic compounds, methods for producing the same, and uses thereof” (Academia Sinica, priority 2019, dated 2023).

For one assay, the system named is VRE ATCC 700221 (vanA). In words: MIC, broth microdilution. It is filed as cell-based, enterococci. The conditions noted are these: VRE ATCC 700221 (vanA). The gist of the method: (§1)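 Colonies from 18-24 h agar cultures were grown in broth to a 0.5 McFarland turbidity and adjusted to approximately 1×10^8 CFU mL^−1. Plates were incubated at 37° C for 18-24 h. MIC was taken as the lowest compound concentration with no visible growth.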
(In general: Broth dilution looks for growth in wells or tubes with falling amounts of substance.)

The next assay concerns VRE ATCC 700802 (vanB). In words: MIC, broth microdilution. It is filed as cell-based, enterococci. The following applies: VRE ATCC 700802 (vanB). An outline of the steps: as §1
The subject of assay [1] is MRSA ATCC 700787. In words: Minimal bactericidal concentration (MBC). It counts as cell-based, Staphylococcus aureus. The method, then: (§2) Minimal Bactericidal Concentration (MBC) Determination
(§3) The MBC test is an extension of the MIC examination. MBC was determined by performing subcultures on antibiotic-free agar from both the well where there was no visible growth at the MIC of a tested antibiotic and from the positive control well (with inoculum but without compounds). The plates were incubated at 37° C. for 18-24 hours. The MBC was taken as the lowest concentration of the test compound that results in more than 99.9% reduction of viable bacteria. If MBC was one or two dilutions above a given MIC value (MBC/MIC ratio was less than or equal to four), the antibiotic was considered bactericidal against the test organism.

The test system of a further assay is AB ATCC 19606. In words: Minimal bactericidal concentration (MBC). It counts as cell-based, Acinetobacter baumannii. The method, then: as §2, §3
In assay [2] the test system is MRSA ATCC 700787. Put plainly: In vivo efficacy, intraperitoneal MRSA infection. More on the design: species or system mice. The conditions noted are these: peritoneal fluid, 24 hours post-inoculation, single dose 20 mgkg^−1 IP. The procedure: In Vivo Efficacy of r6,N-Acyl-Glc Tei Analogs
Female C57BL/6 mice (6 weeks of age; about 16-19 g, 3-5 mice per group) were intraperitoneally inoculated with 300 μL of MRSA ATCC 700787 suspension (about 10^7 CFUmL^−1). For intranasal A. baumannii (ATCC 19606) inoculation, mice were anesthetized, and inoculated intranasally with about 10^7-10^8 CFUmL^−1 A. baumannii in 50 μL of PBS. Treatments were started 1 hour after the bacterial challenge. The dose administration to mice was set as follows: teicoplanin (1) or r6,C8-Tei analog (14) 20 mgkg^−1 was intraperitoneally injected to MRSA-infected mice; amikacin (15 mgkg^−1), teicoplanin (1) (30 mgkg^−1), kanamycin (30 mgkg^−1) or r1,Me2-r6,guanidino-C8 analog (24) (30 mgkg^−1) was intraperitoneally injected to AB-infected mice. To assess bacteraemia, the test animals were sacrificed to collect 1 mL of peritoneal fluid (PF) for MRSA counting or the lungs were lavaged to collect 0.6 mL bronchoalveolar lavage (BAL) fluid for A. baumannii counting.
For MRSA, mice were inoculated intraperitoneally (IP) with 0.3 mL of MRSA ATCC 700787 suspension (about 10^7 CFUmL^−1). […] For the saline treated control, bacterial count was calculated (about 7.5 log CFUmL^−1, FIG. 4A). […]

Molecules are shown by their SMILES. Converted amounts (≈) assume the structure as drawn.

In the case of `CCCCCCCC(=O)N[C@H]1[C@H](O[C@@H]2c3ccc(c(Cl)c3)Oc3cc4cc(c3O)Oc3ccc(cc3Cl)C[C@H]3NC(=O)[C@H](N)c5ccc(O)c(c5)Oc5cc(O)cc(c5)[C@H](NC3=O)C(=O)N[C@H]4C(=O)N[C@H]3C(=O)N[C@@H]2C(=O)N[C@H](C(=O)O)c2cc(O)cc(O)c2-c2cc3ccc2O)O[C@H](CO)[C@@H](O)[C@@H]1O` [Compound 14, r6,N-octyl-Glc Tei], the figures for the minimum inhibitory concentration (MIC) with VRE ATCC 700221 (vanA) and in the assay with VRE ATCC 700802 (vanB) were over 16 µg/mL and 0.5 µg/mL (≈ 0.336 µM), respectively. In addition, the MBC (usually the lowest tested concentration that kills the bacteria rather than only halting them) in the assay on MRSA ATCC 700787 [1] turned out to be 0.063 µg/mL (≈ 0.0424 µM); in the assay on AB ATCC 19606, 74.22 µg/mL (≈ 49.9 µM). Moreover, the MBC/MIC in the assay with MRSA ATCC 700787 [1] worked out at 4; in the assay on AB ATCC 19606 it was 1. In addition, the “bacterial load reduced by” value in the assay on MRSA ATCC 700787 [2] stood at 2 log CFUmL^−1.
